In ChEMBL document CHEMBL1141954, “Indole-2-carboxamidines as novel NR2B selective NMDA receptor antagonists” (Bioorg Med Chem Lett, 2005) one finds IC50, ED50 and inhibition data, which are given here for 16 compounds.

The first assay has as its target Glutamate NMDA receptor. Kind of assay: Inhibition of NMDA-evoked intracellular calcium increase in rat cortical cells. The format is functional, cell-based.
With `COc1cccc(OC)c1C/N=C(\N)c1cc2cc(Cl)ccc2[nH]1`, the IC50 is 69 nM. Same read-out and setting: as for `N=C(NCc1cc(Cl)cc(Cl)c1)c1cc2ccccc2[nH]1`, the figure is 159 nM; as for `COc1ccccc1C/N=C(\N)c1cc2ccccc2[nH]1.Cl`, 35 nM; as for `COc1ccccc1CNC(=N)/C=C/c1ccccc1`, 6.6 nM. On the same count and under the same terms, as for `COc1ccccc1C/N=C(\N)c1cc2cc(Cl)ccc2[nH]1`, the figure is 64 nM. `COc1ccc2[nH]c(C(=N)NCc3c(OC)cccc3OC)cc2c1`: the IC50 stood at 26 nM.

As for `Cc1ccccc1C/N=C(\N)c1cc2ccccc2[nH]1`, the IC50 is 170 nM.

For the compound `N=C(NCc1c(F)cccc1F)c1cc2ccccc2[nH]1`, the IC50 was determined as 143 nM.

Regarding `COc1ccccc1C/N=C(\N)c1cc2cc(F)ccc2[nH]1`, the IC50 turned out to be 33 nM. The same measure, in the same setting: as for `COc1cccc(OC)c1C/N=C(\N)c1cc2cc(F)ccc2[nH]1`, the figure is 17 nM. The same measure, in the same setting: as for `N=C(NCc1ccccc1F)c1cc2ccccc2[nH]1`, the figure is 232 nM; as for `COc1cccc(OC)c1C/N=C(\N)c1cc2ccccc2[nH]1`, 5.4 nM; as for `COc1ccc2[nH]c(C(=N)NCc3ccccc3OC)cc2c1`, 19 nM.

A further assay is filed under the species Mus musculus. Kind of assay: Oral efficacy in mice formalin test. The class given is functional.
In turn, `COc1ccccc1C/N=C(\N)c1cc2ccccc2[nH]1.Cl` displayed an ED50 of 15 mg/kg.

Another assay addresses Glutamate NMDA receptor. Kind of assay: Inhibition of NMDA-evoked intracellular calcium increase in rat cortical cell at 1 uM. The class given is functional, cell-based.
In the case of `COc1cccc(C/N=C(\N)c2cc3ccccc3[nH]2)c1.Cl`, the inhibition was 57%.

In the case of `COc1ccc(C/N=C(\N)c2cc3ccccc3[nH]2)cc1.Cl`, the inhibition is recorded as 10.5%. As for `Cl.N=C(NCc1ccccc1)c1cc2ccccc2[nH]1`, the inhibition is 32.8%.

For a further assay, the target named is Glutamate NMDA receptor; GRIN1/GRIN2A (Homo sapiens) (UniProt Q05586+Q12879). Kind of assay: Inhibitory activity against NR1A expressed in combination with NR2A at 15 uM.
Consider `COc1cccc(OC)c1C/N=C(\N)c1cc2ccccc2[nH]1`, for which the inhibition stood at 32.1%.
